ChEMBL document CHEMBL1909046, “DrugMatrix in vitro pharmacology data”

What was measured:
[1] = biological target: T1, Alpha-1A adrenergic receptor (Rattus norvegicus, UniProt P43140); experiment: DRUGMATRIX: Alpha-1A adrenergic receptor radioligand binding (ligand: prazosin); type: cell membranes, Wistar, Submaxillary gland, Membrane; conditions: Not Active = under 50% inhibition at 10 µM; for Ki: read-out: Ki
T1 sequence (P43140 whole entry): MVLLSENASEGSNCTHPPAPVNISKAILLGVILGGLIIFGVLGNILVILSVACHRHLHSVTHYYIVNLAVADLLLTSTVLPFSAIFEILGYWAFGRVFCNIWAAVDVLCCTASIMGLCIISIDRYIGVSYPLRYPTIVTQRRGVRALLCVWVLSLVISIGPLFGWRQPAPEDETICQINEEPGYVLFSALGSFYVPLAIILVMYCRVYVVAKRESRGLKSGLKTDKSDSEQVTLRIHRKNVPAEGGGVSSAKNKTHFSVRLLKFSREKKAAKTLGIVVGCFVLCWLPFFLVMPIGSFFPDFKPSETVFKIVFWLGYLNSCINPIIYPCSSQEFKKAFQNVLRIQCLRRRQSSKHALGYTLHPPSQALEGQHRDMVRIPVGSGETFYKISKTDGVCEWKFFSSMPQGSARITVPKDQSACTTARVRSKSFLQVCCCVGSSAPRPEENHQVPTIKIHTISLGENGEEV

[2] = DRUGMATRIX: Calcium Channel Type L, Dihydropyridine radioligand binding (ligand: [3H] Nitrendipine); type: cell membranes, Rattus norvegicus, Wistar, Cerebral cortex, Membrane; conditions: Not Active = under 50% inhibition at 10 µM
Endothelin-1 receptor = biological target: T2, Endothelin-1 receptor (Homo sapiens, UniProt P25101); type: cell membranes, CHO-K1, Membrane; conditions: cho-k1; note: in other assays of this panel Not Active means under 50% inhibition at 10 µM
T2 sequence (P25101 whole entry): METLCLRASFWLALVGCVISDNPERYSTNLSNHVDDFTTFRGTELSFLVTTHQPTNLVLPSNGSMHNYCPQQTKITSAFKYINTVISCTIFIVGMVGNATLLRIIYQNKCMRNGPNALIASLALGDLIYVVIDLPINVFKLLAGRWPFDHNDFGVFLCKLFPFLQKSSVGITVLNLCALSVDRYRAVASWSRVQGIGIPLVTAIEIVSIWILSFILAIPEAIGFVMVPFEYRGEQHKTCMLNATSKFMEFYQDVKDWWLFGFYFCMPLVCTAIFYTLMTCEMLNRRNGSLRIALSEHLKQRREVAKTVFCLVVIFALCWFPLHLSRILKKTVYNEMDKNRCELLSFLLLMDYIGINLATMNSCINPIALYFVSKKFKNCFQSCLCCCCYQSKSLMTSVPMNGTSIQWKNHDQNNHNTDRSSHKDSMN

[3] = DRUGMATRIX: Interleukin IL-1 radioligand binding (ligand: [125I] interleukin 1beta); type: cell membranes, Membrane; conditions: nih3t3; Not Active = under 50% inhibition at 10 µM
[4] = biological target: Platelet-activating factor receptor (Homo sapiens, UniProt P25105); type: tissue-based; note: in other assays of this panel Not Active means under 50% inhibition at 10 µM
[5] = biological target: 5-hydroxytryptamine receptor 1B (Rattus norvegicus, UniProt P28564); type: cell membranes, Wistar, Cerebral cortex, Membrane; note: in other assays of this panel Not Active means under 50% inhibition at 10 µM
Adenosine receptor A2a = Adenosine receptor A2a (Homo sapiens, UniProt P29274); experiment: DRUGMATRIX: Adenosine A2A radioligand binding (ligand: […]); type: cell membranes, Membrane; conditions: hek293; Not Active = under 50% inhibition at 10 µM
Adenosine receptor A2a, sequence (P29274 whole entry): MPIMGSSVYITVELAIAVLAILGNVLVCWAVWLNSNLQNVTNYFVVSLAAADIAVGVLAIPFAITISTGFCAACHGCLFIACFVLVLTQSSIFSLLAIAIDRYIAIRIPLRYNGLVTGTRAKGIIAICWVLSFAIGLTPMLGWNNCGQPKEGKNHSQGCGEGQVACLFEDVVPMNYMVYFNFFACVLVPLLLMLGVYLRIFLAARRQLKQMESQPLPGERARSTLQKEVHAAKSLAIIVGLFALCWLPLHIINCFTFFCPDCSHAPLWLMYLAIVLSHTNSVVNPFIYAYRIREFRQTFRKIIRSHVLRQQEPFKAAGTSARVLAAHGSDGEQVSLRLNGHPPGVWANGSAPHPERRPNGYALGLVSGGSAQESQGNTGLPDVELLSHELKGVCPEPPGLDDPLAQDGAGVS

5-hydroxytryptamine receptor 1B, sequence (P28564 whole entry): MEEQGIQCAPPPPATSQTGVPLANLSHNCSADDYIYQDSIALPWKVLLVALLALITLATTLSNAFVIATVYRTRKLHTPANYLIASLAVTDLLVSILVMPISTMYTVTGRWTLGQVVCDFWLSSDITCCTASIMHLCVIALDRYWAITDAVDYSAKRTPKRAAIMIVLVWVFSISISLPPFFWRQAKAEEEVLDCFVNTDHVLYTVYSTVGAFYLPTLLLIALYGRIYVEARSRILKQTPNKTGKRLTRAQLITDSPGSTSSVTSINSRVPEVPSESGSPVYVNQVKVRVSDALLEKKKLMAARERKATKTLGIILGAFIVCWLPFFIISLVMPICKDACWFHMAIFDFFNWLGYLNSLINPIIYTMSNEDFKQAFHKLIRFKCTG
Platelet-activating factor receptor, sequence (P25105 whole entry): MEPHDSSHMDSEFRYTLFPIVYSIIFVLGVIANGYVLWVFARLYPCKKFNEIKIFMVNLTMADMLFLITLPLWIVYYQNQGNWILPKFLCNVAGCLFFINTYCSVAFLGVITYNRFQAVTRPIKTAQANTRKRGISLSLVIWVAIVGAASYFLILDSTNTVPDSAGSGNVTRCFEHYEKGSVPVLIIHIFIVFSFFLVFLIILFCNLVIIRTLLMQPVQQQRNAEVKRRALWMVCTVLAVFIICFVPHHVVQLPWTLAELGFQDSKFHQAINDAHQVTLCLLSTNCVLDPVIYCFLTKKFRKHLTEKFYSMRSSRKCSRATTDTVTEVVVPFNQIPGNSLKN

| SMILES | IC50 [1] | IC50 [2] | Ki [2] | IC50 (Endothelin-1 receptor) | IC50 [3] | Ki [3] | IC50 [4] | IC50 [5] | IC50 (Adenosine receptor A2a) | IC50 ([1]; read-out: IC50) [µM] | Ki [1] [µM] | IC50 ([5]; read-out: IC50) [µM] | Ki ([5]; read-out: Ki) [µM] | IC50 ([2]; read-out: IC50) [µM] | Ki ([2]; read-out: Ki) [µM] |
| --- | --- | --- | --- | --- | --- | --- | --- | --- | --- | --- | --- | --- | --- | --- | --- |
| CCCCN1CCCC[C@H]1C(=O)Nc1c(C)cccc1C [LEVOBUPIVACAINE] | Not Active | Not Active | Not Active | Not Active | Not Active | Not Active | Not Active | Not Active | Not Active |  |  |  |  |  |  |
| CC(C)C(=O)Nc1ccc([N+](=O)[O-])c(C(F)(F)F)c1 [FLUTAMIDE] | Not Active | Not Active | Not Active | Not Active | Not Active | Not Active | Not Active | Not Active | Not Active |  |  |  |  |  |  |
| CC(C)[C@H]1C(=O)N2CCC[C@H]2[C@]2(O)O[C@](NC(=O)[C@@H]3C=C4c5cccc6[nH]cc(c56)C[C@H]4N(C)C3)(C(C)C)C(=O)N12 [ERGOCORNINE] |  | Not Active | Not Active | Not Active | Not Active | Not Active | Not Active |  | Not Active | 0.011 | 0.00447 | 0.03 | 0.019 |  |  |
| CC(C)(Oc1ccc(Cl)cc1)C(=O)O [CLOFIBRIC ACID] | Not Active | Not Active | Not Active | Not Active | Not Active | Not Active | Not Active | Not Active | Not Active |  |  |  |  |  |  |
| CCCC1O[C@@H]2C[C@H]3[C@@H]4CCC5=CC(=O)C=C[C@]5(C)[C@H]4[C@@H](O)C[C@]3(C)[C@]2(C(=O)CO)O1 (stereo not given in full) [BUDESONIDE] | Not Active | Not Active | Not Active | Not Active | Not Active | Not Active | Not Active | Not Active | Not Active |  |  |  |  |  |  |
| O=C(CCCN1CC=C(n2c(=O)[nH]c3ccccc32)CC1)c1ccc(F)cc1 [DROPERIDOL] |  | Not Active | Not Active | Not Active | Not Active | Not Active | Not Active | Not Active | Not Active | 0.00165 | 0.000669 |  |  |  |  |
| Cc1onc(O)c1CC(N)C(=O)O (racemic) [(R,S)-AMPA] | Not Active | Not Active | Not Active | Not Active | Not Active | Not Active | Not Active | Not Active | Not Active |  |  |  |  |  |  |
| CCOC(=O)C1=C(COCCN)NC(C)=C(C(=O)OC)C1c1ccccc1Cl (stereo not given) [AMLODIPINE] | Not Active |  |  | Not Active | Not Active | Not Active | Not Active | Not Active | Not Active |  |  |  |  | 0.031 | 0.02 |
